Measured values from ChEMBL document CHEMBL1201862, “PubChem BioAssay data set” (2004).
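In this assay, cells in 96-well plates receive the compound at five concentrations for 48 hours. Endpoints are linearly interpolated between the surrounding concentrations. Abbreviation: GI50, concentration required for 50% inhibition of growth.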 Activity calls are given as the source filed them. No stated cut-off is given here; in the data, active = GI50 up to about 1.1 µM and inactive = higher.

Experiments:
Experiment in all cases: growth of human tumour cells (NCI), 48 h
[1] = test system: HOP-62
[2] = test system: Malme-3M
[3] = test system: EKVX
[4] = test system: SF-539
[5] = test system: CCRF-CEM
[6] = test system: COLO 205
[7] = test system: SK-MEL-28
[8] = test system: NCI/ADR-RES
[9] = test system: M14
[10] = test system: RXF 393
[11] = test system: SK-MEL-5
[12] = test system: SNB-75
[13] = test system: NCI-H23
[14] = test system: NCI-H460
[15] = test system: LOX IMVI
[16] = test system: A498
[17] = test system: SF-268
[18] = test system: MCF7
[19] = test system: U-251
[20] = test system: A549

Measured: GI50

CC(C)C1C(=O)N(c2c(F)c(F)c(F)c(F)c2F)C(=S)N1CC[S+]([O-])c1ccccc1 (configuration not stated)
inactive: [1] 23.9 µM | [2] 15.7 µM | [3] 16.4 µM | [4] 19.7 µM | [5] 18.3 µM | [6] 15.5 µM | [7] 16.9 µM | [8] 20 µM | [9] 15.7 µM | [10] 17.8 µM | [11] 14.2 µM | [12] 26.4 µM | [13] 16.8 µM | [14] 19.3 µM | [15] 14.4 µM | [16] 16.6 µM | [17] 16.7 µM | [18] 16.6 µM | [19] 14.8 µM | [20] 18.9 µM

C[n+]1cn(-c2ccc([N+](=O)[O-])cn2)c2ccccc21
inactive: [1] > 100 µM | [2] > 100 µM | [3] > 100 µM | [4] > 100 µM | [5] > 100 µM | [6] > 100 µM | [7] > 100 µM | [8] > 100 µM | [9] > 100 µM | [10] > 100 µM | [11] > 100 µM | [12] > 100 µM | [13] > 100 µM | [14] > 100 µM | [15] > 100 µM | [16] > 100 µM | [17] > 100 µM | [18] > 100 µM | [19] > 100 µM | [20] > 100 µM

COc1ccc2c(c1)CCc1c(CO)c(COC(=O)NC(C)C)n(C)c1-2
inactive: [1] 24 µM | [2] 4.15 µM | [3] 22.9 µM | [4] 12.9 µM | [5] 2.64 µM | [6] 2.09 µM | [7] 5.02 µM | [8] 16.1 µM | [9] 6.11 µM | [10] 7.55 µM | [11] 4.51 µM | [12] 4.82 µM | [13] 2.97 µM | [14] 5.56 µM | [15] 4.91 µM | [16] 9.29 µM | [17] 6.49 µM | [18] 9.79 µM | [19] 5.41 µM | [20] 6.53 µM

CN(C)C(=O)N(CCCl)N=O
inactive: [1] > 100 µM | [2] > 100 µM | [3] > 100 µM | [4] > 100 µM | [5] > 100 µM | [6] > 100 µM | [7] > 100 µM | [8] > 100 µM | [10] > 100 µM | [11] > 100 µM | [12] > 63.7 µM | [13] > 100 µM | [14] > 100 µM | [15] > 100 µM | [16] > 100 µM | [17] > 100 µM | [18] > 100 µM | [19] > 100 µM | [20] > 100 µM

O=S1(=O)C(=C(c2ccccc2)c2ccccc2)S(=O)(=O)c2ccccc21
inactive: [1] 23.2 µM | [2] 53.1 µM | [3] > 100 µM | [4] 27.5 µM | [5] > 100 µM | [6] > 100 µM | [7] > 100 µM | [8] > 100 µM | [10] 34.1 µM | [11] > 89.7 µM | [12] 20.2 µM | [13] > 63.2 µM | [14] > 100 µM | [15] > 100 µM | [16] > 74.3 µM | [17] > 72.6 µM | [18] 7.46 µM | [19] 51.6 µM | [20] > 100 µM

Nc1nc(Cl)cc(NC2(CO)CCC2)n1
inactive: [1] > 100 µM | [2] > 100 µM | [3] > 100 µM | [4] > 100 µM | [5] > 100 µM | [6] > 100 µM | [7] > 100 µM | [8] > 100 µM | [10] > 100 µM | [11] > 100 µM | [12] > 100 µM | [13] > 100 µM | [14] > 100 µM | [15] > 100 µM | [16] > 100 µM | [17] > 100 µM | [18] > 100 µM | [19] > 100 µM | [20] > 100 µM
